Measurements from PubChem BioAssay (NCI).
“And” between values parts separate entries of the source, which are not always exact repeats. Equal entries are not always repeated.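 In this assay, cells in 96-well plates receive the compound at five concentrations for 48 hours. Endpoints are linearly interpolated between the surrounding concentrations. GI50 is the concentration that inhibits growth by half. TGI denotes the concentration required for complete inhibition of growth.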

System: MDA-MB-468 breast
Assay: inhibition of tumour cell growth, NCI panel, 48 h

SMILES	GI50	TGI
COc1ccc(C2=NN(C(=O)c3cc(OC)c(OC)c(OC)c3)C(c3ccc(Cl)cc3)C2)cc1OC (configuration not stated)	585 nM	> 100000 nM
Oc1c(CN2CCCC2)cc(COCc2ccc(Br)cc2)c2cccnc12	602 nM	2140 nM
Cc1cc(C2=NNC(=O)Cc3cc4c(cc32)OCCO4)cc(C)c1N	523 nM	7240 nM
COc1ccc(-c2nn(-c3cccc(NC(=O)c4ccc5c(c4)OCCO5)c3)cc2-c2ccncc2)cc1Cl	1630 nM	6480 nM
O=C(Nc1cccc(Oc2nnc(Cl)c3ccccc23)c1)Nc1ccc(Cl)c(C(F)(F)F)c1	689 nM	3430 nM
CN1CCN(Cc2ccc(NC(=O)c3cncc(C#Cc4cncc5ncccc45)c3)cc2C(F)(F)F)CC1	8720 nM	21800 nM
N#Cc1ccc(N2Cc3ccccc3OC3=C2C(=O)c2c(O)ccc(O)c2C3=O)cc1	132 nM	366 nM
Cc1cnc(/C=N\NC(N)=S)c2cccc(N)c12	206 nM	504 nM
O=C1c2ccccc2C(=Cc2ccccc2)c2ccccc21	565 nM	10700 nM
Cn1cc(C2=C(c3cccnc3)C(=O)NC2=O)c2ccccc21	> 20100 nM	> 25000 nM
CC(=O)OCC(=O)O[C@@H]1C[C@]2(C(C)C)O[C@@]1(C)[C@@H]1CC[C@@H](C)[C@H]1[C@@H]2OC(=O)/C=C/c1ccccc1	13500 nM	55600 nM
O=C(CCCN1CCOCC1)Nc1ccc(Cn2nnc3c2C(=O)c2nnn(Cc4ccc(NC(=O)CCCN5CCOCC5)cc4)c2C3=O)cc1	304 nM	817 nM
COc1cc2nccc(Oc3ccc(NC(=O)C4(C(=O)Nc5ccc(F)cc5)CC4)cc3)c2cc1Oc1ccc(N)cn1	2450 nM	8820 nM
O=C(CF)N(O)c1ccc(/C=C/c2ccccc2)cc1	64.2 nM	354 nM
COC(=O)[C@]12CC[C@@H](C)[C@H](C)[C@@H]1C1=CC[C@@H]3[C@@]4(C)C(C=O)=C[C@@](C)(COC(=O)c5ccco5)[C@@H]4C(=O)C[C@@]3(C)[C@]1(C)CC2	277 nM	–
CC(=O)O[C@H](C[C@H](C(C)C)N(C)C(=O)[C@@H](NC(=O)[C@H]1CCCCN1C)C(C)C)c1nc(C(=O)N[C@@H](Cc2ccccc2)C[C@H](C)C(=O)O)c(C(C)C)s1	< 3.33 nM	194 nM
O=[N+]([O-])c1ccc2c(N3CCC(CCCC4CCN(c5ncnc6cc([N+](=O)[O-])ccc56)CC4)CC3)ncnc2c1	31.6 nM	> 100000 nM
CN(C)c1ccc(/C=C(\C#N)c2nc3ccccc3n2C)cc1	1760 nM	> 100000 nM
CC1CCN(CCCCCOc2ccc3oc4cc(Cl)ccc4c(=O)c3c2)CC1	6130 nM	13600 nM
C=CC[P+](c1ccccc1)(c1ccccc1)c1ccccc1	609 nM	9130 nM

SMILES	GI50	TGI
C#C[C@]1(O)CC[C@H]2[C@@H]3CC=C4c5sc(Nc6cccc(C)n6)nc5CC[C@]4(C)[C@H]3CC[C@@]21C	2040 nM	5680 nM
COc1cnc2c(c1)C(=O)c1c-2n(CCCN2CCC(O)CC2)c(=O)c2cc(F)ccc12	152 nM	438 nM
CC(C)(C#N)c1cc(F)cc(C(=O)Nc2cc(Nc3ncccc3-c3ncnc4nc[nH]c34)ccc2F)c1	> 10000 nM	> 10000 nM
CN(C)c1ncnc2c1nnn2C1OC(CO)C(O)C1O (configuration not stated)	73.6 nM	1160 nM
CNC(=O)c1ccc2cc(C3(O)CCn4cncc43)ccc2c1 (configuration not stated)	> 100000 nM	> 100000 nM
CC1=C2C(=C[C@@](C)(C=O)[C@@H]2O)C(=O)[C@](C)(O)C12CC2	233 nM	764 nM
O=c1c2ccccc2n2n1CC(O)C2 (configuration not stated)	> 100000 nM	> 100000 nM
C[C@@H]1CC[C@@H]2[C@@H]1[C@H](OC(=O)/C=C/c1ccccc1)[C@]1(C3CCCCC3)C[C@@H](NC(=O)CO)[C@@]2(C)O1	17100 nM	33500 nM
CN(C)CCOc1ccc(/C(=C(/CCCl)c2ccccc2)c2ccccc2)cc1	682 nM	1520 nM
Cc1noc(C)c1-c1cc(O)cc(C(O)c2ccccc2)c1 (configuration not stated)	1890 nM	40600 nM
O=C(CN1CCN(c2ccc(Cl)cc2)CC1)N1CCN(c2nnc(-c3ccc(Cl)cc3)c(-c3ccc(Cl)cc3)n2)CC1	18800 nM	65200 nM
CC/C=C\C/C=C\C[C@H](O)C/C=C1/C(=O)C=C[C@@H]1C/C=C\CCCC(=O)O	2320 nM	6710 nM
CC[C@H](Nc1nc(N)nc(C)c1C#N)c1nc2cccc(NCc3ccc(C(=O)NO)cc3)c2c(=O)n1-c1ccccc1	1270 nM	4420 nM
O=C(Nc1ccc(Cl)cc1F)c1cc(I)ccc1O	2100 nM	5450 nM
CCCC[N+](CCCC)=c1ccc2nc3c(C)cc(N(CC)CC)cc3sc-2c1	39.1 nM	351 nM
CC(C)(C)c1[nH]cnc1/C=c1\[nH]c(=O)/c(=C/c2ccccc2)[nH]c1=O	22.6 nM	28600 nM
CN1CCN(c2ccc3nc(-c4c(N)c5c(F)cccc5[nH]c4=O)[nH]c3c2)CC1	1460 nM and 953 nM and 2300 nM	3580 nM and > 2300 nM and 7030 nM
CCN1C(=O)NC(=O)C(C)(N2C(=O)c3c(F)c(F)c(F)c(F)c3C2=O)C1=O (configuration not stated)	1750 nM	5680 nM
O=C(Nc1ccc(Oc2ccc3nc(NC(=O)c4ccccc4)[nH]c3c2)cc1)Nc1cc(C(F)(F)F)ccc1F	625 nM	5450 nM
